# According to patent US20090253768A1, “THERAPEUTIC COMPOUNDS FOR DISEASES AND DISORDERS” (Myriad Genetics, Incorporated, priority 2006, published 2009):
# System: khc/+; klc/+ Drosophila larvae
# Assay: Suppression of the flipper (tail-flipping) motor dysfunction phenotype in an animal model
# Assay type: in vivo, Drosophila melanogaster
# Details: for larvae effectively "cured" of their motor dysfunction: after accounting for penetrance
# Source text: A stock of fruit flies (Drosophila melanogaster) was generated that is heterozygous for both KHC and KLC, which encode proteins that associate to form functional kinesin-1, also called conventional kinesin. […] A number of factors that contribute to this incomplete penetrance were identified, including the following: • 1. The flipper phenotype of a given animal appears to be suppressed by the number of larvae that precede the animal in development. That is, if a larva is among the first to develop in a vial of eggs, it is more likely to show the flipper phenotype than if it is one of the last to emerge. • 2. The flipper phenotype appears to be less robust on hard media than it is on soft media. • 3. The phenotype is diminished by physically disturbing the larvae. • 4. The clearest expression of the flipper phenotype is restricted to that phase of the 3rd instar stage of development that follows the appearance of spiracles.
# Attempts to accommodate these observations were mad in order to optimize penetrance of the phenotype. Specifically: • 1. Virgin females and males were confined to a single vial for only 2 days; the flies were then transferred to fresh vials for an additional 2 days; and this process was repeated to minimize the number of larvae that would emerge in each vial. • 2. Efforts were taken to minimize handling of the larvae. • 3. Attempts were made to score the phenotype late in the 3rd instar stage of development.
# In a non-blinded experiment, compound 16 (Tables 1 and 2) was tested for its ability to suppress the flipper phenotype of khc/+; klc/+ Drosophila larvae (using the animal model described in Example 7), relative to vehicle (DMSO) alone. Specifically khc/+; klc/+ Drosophila larvae were grown in the presence or absence of 0.5 mM compound 16 and scored for motor dysfunction. A total of 151 larvae were scored, 77 in the vehicle-only group and 74 in the vehicle plus compound group. […] The ratio of Flipper to Non-Flipper phenotype observed in the vehicle-only group corresponds to an 81% penetrance of the flipper phenotype in this experiment. […] Note that equivalent conclusions were obtained if, instead of scoring the number of larvae with and without motor dysfunction, the severity of the aberrant movement was analyzed.
# This experiment was repeated using a blinded format and a total of 221 larvae were scored. Of the larvae in this study 104 larvae were in the vehicle-only group and 117 larvae were in the treatment group. […] The results of this second study are quite similar to those of the first study: after accounting for the differences in penetrance between the studies, compound 16 effectively “cured” 42% of the larvae of their motor dysfunction in the first experiment, and 43% of the larvae in the second experiment.
smiles,measurement,setting,value
"Cc1c(-c2ccccc2)cc(-c2ccc(C(F)(F)F)cc2)n1-c1ccc(CCCC(=O)O)cc1 [Compound 16, 4-{4-[2-Methyl-3-phenyl-5-(4-trifluoromethyl-phenyl)-pyrrol-1-yl]-phenyl}-butyric acid]",reduction in flipper phenotype relative to vehicle,"blinded repeat, 117 treated vs 104 vehicle larvae, vehicle penetrance 78%, Yates' chi-square p <1x10^-6",highly significant reduction in flipper phenotype
same,"larvae effectively ""cured"" of their motor dysfunction","first (non-blinded) experiment, 0.5 mM",42%
same,suppression of the Flipper phenotype relative to vehicle (DMSO),"non-blinded experiment, larvae grown with 0.5 mM compound, 74 treated vs 77 vehicle larvae, vehicle penetrance 81%, Fischer's test p less than 10^-4",significant suppression of the Flipper phenotype
same,"larvae effectively ""cured"" of their motor dysfunction",second (blinded) experiment,43%
